Measurements as given in patent US20240317809A1, “Engineered Antimicrobial Peptides and Usage Thereof” (University of Pittsburgh-Of the Commonwealth System of …, priority 2021, published 2024).
Several values for one entry are separate records, joined by “and”; a condition that tells them apart may be missing. Equal values may be shown once. Peptide text beside a SMILES is read from it.

Legend:
[1] = tested on: S. aureus; experiment: MIC, CLSI protocol, planktonic ESKAPE pathogens; type: cell-based, Staphylococcus aureus; details: N=4
Experimental: (§1) Standard Clinical and Laboratory Standards Institute (CLSI) protocol was used to measure the minimum inhibitory concentration (MIC) against each organism. Biofilm model: Implant material was prepared from 0.6 mm diameter stainless steel Kirschner wire and plated at 0.5×10^6 CFU/ml. Mature biofilm developed over 48 hours, wires were washed, and then treated with 1 mg/mL WLBU-2 (SEQ ID: 10) in PBS (pH 7.4) for 5, 15, and 30 minutes. Quantitative culture (colony forming unit, CFU) analysis was then completed.
(§2) ESKAPE pathogens were selected from a large clinical library of MDR and non-MDR organisms (n>100 organism). […] At 15 minutes, organisms had greater than a 3 log reduction in biofilm mass (E. faecium: 3 log 10; S. aureus: 5 log 10; K. pneumoniae 6 log 10; A. baumannii 5 log 10; P. aeruginosa 8 log 10; E. cloacae 7 log 10; E. coli 5 log 10).

[2] = tested on: P. aeruginosa; experiment: MIC, CLSI protocol, planktonic ESKAPE pathogens; type: cell-based, Pseudomonas aeruginosa; details: N=20
Experimental: as §1, §2

[3] = tested on: E. coli; experiment: MIC, CLSI protocol, planktonic ESKAPE pathogens; type: cell-based; details: N=8
Experimental: as §1, §2

[4] = tested on: E. cloacae; experiment: MIC, CLSI protocol, planktonic ESKAPE pathogens; type: cell-based; details: N=2
Experimental: as §1, §2

[5] = tested on: K. pneumoniae; experiment: MIC, CLSI protocol, planktonic ESKAPE pathogens; type: cell-based, Klebsiella pneumoniae; details: N=8
Experimental: as §1, §2

[6] = tested on: bacterial burden; experiment: Survival study with rabbit PJI model; type: in vivo; details: for survival rates of rabbits as a function of days post-infection: observed up to 14 days (Group 4: 28 days)
Experimental: In the following Examples 1-5, the administered WLBU-2 formulations were prepared as described in this paragraph. Exemplary pharmaceutical formulations comprising WLBU-2 were prepared at concentrations of 0.5 mg/mL and 1.0 mg/mL in vehicle (dPBS), by formulating under aseptic conditions. WLBU-2 was added while mixing to approximately 90% of volume with vehicle, and mixed until the solution was clear. The solution was adjusted to pH 7.4 using a 1% NaOH solution. dPBS was added quantity sufficient to final volume. The final pH of the solution was read and recorded.
This example illustrates the antibacterial activity an exemplary formulation of WLBU-2, beta lactam antibiotic, and in combination in reducing CFU in vivo with varying concentrations and time of exposure.
A bone tunnel in the tibial canal was created using a drill with a 1.2 mm or 1.6 mm tungsten carbide drill bit. The bone tunnel was then dried and treated to simulate acute human PJI following primary arthroplasty. A Kirschner wire implant was placed in the bone tunnel and the wound closed. Prior to closure of the superficial skin layer, 0.1 mL of 2×10^6 planktonic bacteria (CFU/rabbit) in saline was injected into the joint space. A closure was performed, and a biofilm was allowed to become established over a period of 2 days.
In each group, the joint space was reopened and treated with I&D at 2 days post-infection. Group 1 received neither cefazolin nor WLBU-2. Group 2 received cefazolin but not WLBU-2. Group 3 received WLBU-2 but not the cefazolin. Group 4 received both cefazolin and WLBU-2 treatment. Where applicable, cefazolin was delivered subcutaneously at 10 mg/kg BID for 5 days. Where applicable, WLBU-2 was delivered with 2 ml of WLBU-2 at 1 mg/ml with exposure of 15 minutes. […] When an animal was sick or needed to be euthanized, the implant and a part of the tibia was collected postmortem and CFU analysis was performed. All surviving animals (except for Group 4) were euthanized on day 14 and the implant and tibia were collected most mortem.

[7] = tested on: A. baumannii; experiment: MIC, CLSI protocol, planktonic ESKAPE pathogens; type: cell-based, Acinetobacter baumannii; details: N=24
Experimental: as §1, §2

[8] = Local or systemic toxicity in animal models; type: in vivo
[9] = tested on: S. caprae; experiment: Human patient knee explant study (Example 5), ex vivo CFU analysis; type: cell-based; details: treated vs untreated explant of same patient, 1 mg/mL, 15 minutes
Experimental: (§3) Patients diagnosed with chronic PJI were prospectively enrolled (n=17). All patients met the diagnosis of PJI as defined by the 2018 International Consensus Meeting criteria. The implant was first washed with 50 ml Dulbecco's PBS (dPBS) and submerged ex vivo in an expected clinical exposure of 1 mg/mL WLBU-2 (SEQ ID: 10) in Dulbecco's PBS (dPBS) adjusted to pH 7.4 for 15 minutes. After treatment, the sample was washed with 50 mL of dPBS and sonicated in PBS containing 1% Tween 20 for 5 minutes. After sonication, 100 microliters of the implant sonication fluid was serially diluted, and plated for quantitative culture (CFU analysis). The remaining explanted implant from the same patient served as a control and was processed similarly but without exposure to WLBU-2 (SEQ ID: 10).

[10] = tested on: S. aureus (MRSA); experiment: as above; type: cell-based; details: treated vs untreated explant of same patient, 1 mg/mL, 15 minutes
Experimental: as §3

[11] = tested on: S. aureus (MSSA); experiment: as above; type: cell-based; details: treated vs untreated explant of same patient, 1 mg/mL, 15 minutes
Experimental: as §3

[12] = tested on: S. dysgalactiae; experiment: as above; type: cell-based; details: treated vs untreated explant of same patient, 1 mg/mL, 15 minutes
Experimental: as §3

[13] = tested on: E. coli; experiment: as above; type: cell-based; details: treated vs untreated explant of same patient, 1 mg/mL, 15 minutes
Experimental: as §3

[14] = tested on: E. faecalis; experiment: as above; type: cell-based; details: treated vs untreated explant of same patient, 1 mg/mL, 15 minutes
Experimental: as §3

[15] = tested on: S. hemolyticus; experiment: as above; type: cell-based; details: treated vs untreated explant of same patient, 1 mg/mL, 15 minutes
Experimental: as §3

[16] = tested on: Haemophilus parainfluenzae; experiment: as above; type: cell-based; details: treated vs untreated explant of same patient, 1 mg/mL, 15 minutes
Experimental: as §3

[17] = tested on: gram-positive and gram-negative bacteria on infected prostheses; experiment: Human patient knee explant study (Example 5), ex vivo CFU analysis, all implants; type: cell-based; details: 1 mg/mL in dPBS pH 7.4, 15 minutes; vs untreated implant of same patient
Experimental: as §3

[18] = cefazolin 10 mg/kg sc BID 5 days and/or WLBU-2 2 ml at 1 mg/ml 15 minutes, vs untreated Group 1
[19] = cefazolin 10 mg/kg sc BID 5 days and/or WLBU-2 2 ml at 1 mg/ml 15 minutes, vs untreated Group 1, listed as cefazolin

Molecule: CC(=O)NC[C@H]1CN(c2ccc(N3CCOCC3)c(F)c2)C(=O)O1 [LZD, linezolid]
- minimum inhibitory concentration (MIC) [1]: 4

Molecule: C[C@H]1COc2c(N3CCN(C)CC3)c(F)cc3c(=O)c(C(=O)O)cn1c23 [LVX, levofloxacin]
- minimum inhibitory concentration (MIC) [1]: .015-.03

Molecule: colistin
- minimum inhibitory concentration (MIC) [2]: .12-2^
- minimum inhibitory concentration (MIC) [3]: .06-.25
- minimum inhibitory concentration (MIC) [4]: .06-.25
- minimum inhibitory concentration (MIC) [5]: .06-16

Molecule: CN[C@H](CC(C)C)C(=O)N[C@H]1C(=O)N[C@@H](CC(N)=O)C(=O)N[C@H]2C(=O)N[C@H]3C(=O)N[C@H](C(=O)N[C@H](C(=O)O)c4cc(O)cc(O)c4-c4cc3ccc4O)[C@H](O)c3ccc(c(Cl)c3)Oc3cc2cc(c3O[C@@H]2O[C@H](CO)[C@@H](O)[C@H](O)[C@H]2O[C@H]2C[C@](C)(N)[C@H](O)[C@H](C)O2)Oc2ccc(cc2Cl)[C@H]1O [VAN, vancomycin]
- minimum inhibitory concentration (MIC) [1]: 1

Molecule: C[C@@H](O)[C@H]1C(=O)N2C(C(=O)O)=C(SCCN=CN)C[C@H]12 [IPM, imipenem]
- minimum inhibitory concentration (MIC) [1]: .015-.03
- minimum inhibitory concentration (MIC) [4]: 0.25

Molecule: Cc1nnc(SCC2=C(C(=O)O)N3C(=O)[C@@H](NC(=O)Cn4cnnn4)[C@H]3SC2)s1 [Cefazolin]
- body weight as a function of days post infection ([6]; I&D 2 days post-infection, cefazolin 10 mg/kg sc BID 5 days and/or WLBU-2 2 ml at 1 mg/ml 15 minutes): No significance
- bacterial burden of collected implants (CFU analysis), reduction [6, 18]: significantly lower bacterial burden
- bacterial burden of collected tibia (bone CFU analysis), reduction [6, 18]: 2.6 log
- total CFU (implant and bone), reduction in total bacterial burden [6, 18]: Significant reductions in total bacterial burden
- bacterial burden of collected tibia (bone CFU analysis), reduction [6, 19]: significantly lower bacterial burden
- total CFU (implant and bone), reduction in total bacterial burden [6, 19]: significantly lower bacterial burden
- survival rates of rabbits as a function of days post-infection ([6]; vs untreated Group 1): improved survival in comparison to Group 1
- survival rates of rabbits as a function of days post-infection ([6]; vs untreated Group 1, listed as cefazolin): second-best survival rates

Molecule: CN(C)c1cc(NC(=O)CNC(C)(C)C)c(O)c2c1C[C@H]1C[C@H]3[C@H](N(C)C)C(O)=C(C(N)=O)C(=O)[C@@]3(O)C(O)=C1C2=O [TIG, tigecycline]
- minimum inhibitory concentration (MIC) [7]: 1-16
- minimum inhibitory concentration (MIC) [3]: .25-0.5
- minimum inhibitory concentration (MIC) [4]: 0.5-2
- minimum inhibitory concentration (MIC) [5]: 0.5-2

Molecule: CC(C)[C@H](NC(=O)[C@H](Cc1c[nH]c2ccccc12)NC(=O)[C@H](CCCNC(=N)N)NC(=O)[C@H](CCCNC(=N)N)NC(=O)[C@@H](NC(=O)[C@@H](NC(=O)[C@H](CCCNC(=N)N)NC(=O)[C@@H](NC(=O)[C@@H](NC(=O)[C@H](CCCNC(=N)N)NC(=O)[C@H](CCCNC(=N)N)NC(=O)[C@H](Cc1c[nH]c2ccccc12)NC(=O)[C@@H](NC(=O)[C@H](CCCNC(=N)N)NC(=O)[C@H](CCCNC(=N)N)NC(=O)[C@@H](NC(=O)[C@H](CCCNC(=N)N)NC(=O)[C@H](CCCNC(=N)N)NC(=O)[C@@H](NC(=O)[C@H](Cc1c[nH]c2ccccc12)NC(=O)[C@H](CCCNC(=N)N)NC(=O)[C@@H](N)CCCNC(=N)N)C(C)C)C(C)C)C(C)C)C(C)C)C(C)C)C(C)C)C(C)C)C(=O)N[C@@H](CCCNC(=N)N)C(=O)N[C@@H](CCCNC(=N)N)C(=O)O [WLBU-2, RRWVRRVRRVWRRVVRVVRRWVRR] (H-RRWVRRVRRVWRRVVRVVRRWVRR-OH)
- toxicity to local tissue ([8]; 1 mg/mL for 15 minutes, murine and rabbit PJI animal models): non-toxic to local tissue
- local or systemic toxicity ([8]; therapeutic range of dosing in animal models): does not have significant local or systemic toxicity
- Log reduction [9]: 7.7
- Log reduction [10]: 7.7
- Log reduction [11]: 3.6
- Log reduction [12]: 4.0
- Log reduction [13]: 6.2 and 5.9
- Log reduction [14]: 6.7
- Log reduction [15]: 2.9
- Log reduction [16]: 7.7
- mean log reduction [17]: 6 log
- range of log reduction [17]: 2-7.70 log
